Where a name gives a salt, the structure may show the parent alone.
Test system: pre-diabetic and type 2 diabetes mellitus patients
Assay: Clinical trial: glycosylated hemoglobin (HbA1c)
Assay type: in vivo, human
Conditions: for Effect on glycosylated hemoglobin level (in words) / Post-treatment HbA1c - pre-treatment HbA1c, mean value / Post-treatment HbA1c <7.0% with no hypoglycemia, Yes-N (%) / Post-treatment HbA1c <7.0%, Yes-N (%): 16 weeks of treatment; for Effect on glycosylated hemoglobin level (in words): Kruskal-Wilcox test; for Post-treatment HbA1c, mean value: after 16 weeks of treatment; for Pre-treatment HbA1c, mean value: baseline before treatment
Protocol: From June 2015 to October 2018, a double-blind, randomized, and parallel-controlled trial, studying the effects of the combined use of Bifidobacterium and berberine on pre-diabetic and type 2 diabetes mellitus patients, was conducted in 10 research centers in Xi'an, Yan'an and Shangluo of Shaanxi province, etc., including the First Affiliated Hospital of the Fourth Military Medical University. The trial included an enrollment stage of 2 weeks and a treatment stage of 16 weeks. After passing the first visit 1 (see V1 in Table 1), the subjects entered the enrollment stage, i.e., 2 weeks of lifestyle intervention, followed by a re-screening (see V2 in Table 1). The subjects were subjected to a 16-week course of treatment after passing the screening. See Table 1 for the detailed screening parameters. After the enrollment stage, the baseline data of the 300 successfully enrolled subjects were collected. Meanwhile, the subjects started to receive lifestyle guidance, and were randomly divided into four groups for 16 weeks of treatments. 1) Bifidobacterium group: the subjects were administered with Bifidobacterium capsules (Livzon Pharmaceutical Group Inc., batch no.: 20141013), 0.35 g/capsule, each capsule containing 50,000,000 viable bacteria (Bifidobacterium adolescentis DM8504), 2 capsules/time, 2 times/day, plus berberine placebo tablets (Northeast Pharma Group Shenyang First Pharma Co., Ltd., Lot no.: 20150101, containing 80.2% microcrystalline cellulose, 9.4% pregelatinized starch, 6.4% sodium carboxymethyl starch, 1% magnesium stearate, and 3% copovidone), 0.1 g/tablet, 5 tablets/time, 2 times/day. 2) Berberine group: the subjects were administered with berberine tablets (Northeast Pharma Group Shenyang First Pharma Co., Ltd., Lot no.: 130917, each tablet weighted 0.165 g and contained 0.1 g active berberine ingredient (berberine hydrochloride), with the same excipients as the placebo tablets), 5 tablets/time, 2 times/day, plus Bifidobacterium placebo capsules (Livzon Pharmaceutical Group Inc., Lot no.: 141001, specifically containing 0.348 g spray-dried lactose, and 0.002 g magnesium stearate), 0.35 g/capsule, 2 capsules/time, 2 times/day. 3) Combination Group: the subjects were administered with Bifidobacterium capsules, 0.35 g/capsule, each capsule containing 50,000,000 viable bacteria (B. adolescentis DM8504), 2 capsules/time, 2 times/day, plus berberine tablets, 0.1 g/tablet, each tablet containing 0.1 g active berberine ingredient (berberine hydrochloride), 5 tablets/time, 2 times/day. 4) Control group: the subjects were administered with Bifidobacteria placebo capsules, 0.35 g/capsule, 2 capsules/time, 2 times/day, plus berberine placebo tablets, 0.1 g/tablet, 5 tablets/time, 2 times/day. Bifidobacterium capsules were taken after meals and berberine tablets were taken before meals. Before blood collection, the subjects were kept still for 5 min. For serum insulin assays, 5 ml of whole blood was collected at fasting, and 30 min and 2 h post glucose intake, and then subjected to centrifugation […]. The obtained serum was collected in the cryogenic vials. For the glycosylated hemoglobin (HbA1c) test, 2 ml of whole blood was collected and placed in EDTA-containing tubes. For the GLP-1 and glucagon measurements, 5 ml of whole blood was collected in vacutainers containing EDTA and aprotinin at fasting, and 30 min and 2 h post meals, subjected to centrifugation, and the obtained serum was collected in cryogenic vials and stored at −20° C. Soybean-sized stool sample was placed in a dry and sterile collection tube, and sent to the detection center within 24 h for cryopreservation. […]

Row | Compound | Effect on glycosylated hemoglobin level (in words) | Post-treatment HbA1c - pre-treatment HbA1c, mean value (FAS) [%] | Post-treatment HbA1c <7.0% with no hypoglycemia, Yes-N (%) (FAS) | Post-treatment HbA1c <7.0%, Yes-N (%) (FAS) | Post-treatment HbA1c, mean value (FAS) [%] | Pre-treatment HbA1c, mean value (FAS) [%] | Post-treatment HbA1c <7.0% with no hypoglycemia, Yes-N (%) (PPS) | Post-treatment HbA1c <7.0%, Yes-N (%) (PPS)
1 | COc1ccc2cc3[n+](cc2c1OC)CCc1cc2c(cc1-3)OCO2 [Berberine, berberine hydrochloride] | not significantly different from that of the combined use of berberine and Bifidobacterium | −0.1170 | 40(81.63) N (%) | 48(97.96) N (%) | 6.0800 | 6.1900 | 28(75.68) N (%) | 36(97.30) N (%)
2 | Bifidobacterium | no glycosylated hemoglobin lowing effect | −0.0545 | 76(76.00) N (%) | 88(88.00) N (%) | 6.1500 | 6.1900 | 61(73.49) N (%) | 71(85.54) N (%)
